What was measured:
Pseudomonas fluorescens = test: Minimum inhibitory concentration and synergism (Kull synergistic index) of OPP/AMINE 1 combinations; assay type: cell-based; conditions: compound applied on its own (QA/QB)
Text: The observed synergism of the mixtures according to the invention can be determined by the following mathematical approach (cf. F. C. Kull, P. C. Elisman, H. D. Sylwestrowicz and P. K. Mayer, Appl. Microbiol, 9, 538 (1961):
[formula] where • Qa=the amount of component A in the active compound mixture required to achieve the desired effect, i.e. no microbial growth, • QA=the amount of component A which, applied on its own, suppresses the growth of the microorganisms, • Qb=the amount of component B in the active compound mixture which suppresses the growth of the microorganisms, • Qb=the amount of component B which, applied on its own, suppresses the growth of the microorganisms.
A synergistic index of SI<1, in accordance with the above formula, indicates a synergistic effect for the active compound mixture.
The minimum inhibitory concentration of the active compound combinations listed in Table 1 were examined using the test germ Pseudomonas fluorescens

[1] = tested on: microorganism mixture: Pseudomonas aeruginosa, Pseudomonas fluorescens, Pseudomonas oleovorans, Pseudomonas rubescens, Pseudomonas stutzeri, Alcalaigenes …; test: Microbiological preservation stress test in a chalk suspension; assay type: cell-based; conditions: 60° C. for 3 days before test, weekly contamination
Text: The preserving action of an active compound mixture according to the invention was examined in a chalk suspension using a preservation stress test.
The microbiological stress test examines the susceptibility of water-based systems to microbial attack and the action of preservatives. To this end, the preservatives are incorporated in defined concentrations into the water-based systems. To simulate praxis-like conditions, depending on the medium to be examined, a storage at elevated temperatures (for example 7 days at 40° C., 3 days at 60° C. or the like) may be carried out prior to the actual preservation test to evaluate the preservatives to be examined under conditions which are as realistic as possible. After the preparations have been carried out, contamination with microorganisms of a defined species is carried out at weekly intervals over a test period of at most 6 weeks. 2-3 and 7 days after each contamination, by counting the number of germs, it is established whether a complete kill or at least inhibition of propagation of the bacteria introduced has been achieved, compared to the unpreserved control samples.
The contamination source used for the examination in the stress test was the following microorganism mixture:
Very good activity is achieved when, even after 6 contamination cycles, the reserved samples effect a kill of the microorganisms introduced.
Using a chalk suspension (proportion of solids 70-75%), a preservation stress test according to the above scheme was carried out. After incorporation of the respective biocidally active compounds at the stated concentrations, the samples were exposed to thermal stress at 60° C. for 3 days. The samples pre-treated in this manner were then used for carrying out the microbiological stress test.

Oc1ccccc1-c1ccccc1 [OPP, o-phenylphenol]
Amount of pure active compounds required to suppress growth (Pseudomonas fluorescens): 500 (=QA) ppm | Week 1 ([1]; 150 ppm): ok | Week 2 ([1]; 150 ppm): spoilt | Week 3 ([1]; 150 ppm): spoilt | Week 4 ([1]; 150 ppm): spoilt | Week 5 ([1]; 150 ppm): spoilt | Week 6 ([1]; 150 ppm): spoilt | Week 1 ([1]; 200 ppm): ok | Week 2 ([1]; 200 ppm): ok | Week 3 ([1]; 200 ppm): ok | Week 4 ([1]; 200 ppm): ok | Week 5 ([1]; 200 ppm): spoilt | Week 6 ([1]; 200 ppm): spoilt

CCCCCCCCCCCCN(CCCN)CCCN [“AMINE 1”, bis(3-aminopropyl)dodecylamine]
Amount of pure active compounds required to suppress growth (Pseudomonas fluorescens): 50 (=QB) ppm | Week 1 ([1]; 80 ppm): ok | Week 2 ([1]; 80 ppm): spoilt | Week 3 ([1]; 80 ppm): spoilt | Week 4 ([1]; 80 ppm): spoilt | Week 5 ([1]; 80 ppm): spoilt | Week 6 ([1]; 80 ppm): spoilt | Week 1 ([1]; 160 ppm): ok | Week 2 ([1]; 160 ppm): ok | Week 3 ([1]; 160 ppm): ok | Week 4 ([1]; 160 ppm): spoilt | Week 5 ([1]; 160 ppm): spoilt | Week 6 ([1]; 160 ppm): spoilt

— patent US9119395B2, “Active substance mixtures comprising OPP and amines, microbicidal agents” (LANXESS Deutschland GmbH, priority 2005, dated 2015)
